Broadly, the Dmax is the greatest extent of degradation seen. The DC50 is the concentration giving 50% degradation.

For this assay, the target named is T1, BCL6 (Homo sapiens, UniProt P41182).
T1 construct: endogenous in cells; host or cells: T47D breast cancer epithelial cells
In words: Immunofluorescence protocol for high content imaging of BCL6 (degradation) in T47D cells, 3 days compound treatment. The class given is cell-based. The note with it: for Dmax: T47D, read-out: Mean Dmax (%)** category; for DC50: read-out: Mean DC50 (nM)* category. A digest of the protocol: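 T47D cells in RPMI1640-10% FBS were treated with an 11-point 3-fold dilution series (final top 0.1 or 1 μM) for 3 days at 37° C. After PFA fixation and Triton permeabilization, cells were immunostained with rabbit anti-BCL6 (1:300, overnight 4° C), Alexa-488 secondary, CellMask-647 and Hoechst, then imaged at 10×, 4 fields/well.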

Where only a bound is given, the exact number is not on record here.

On to `CNC(=O)COc1cc2cc(Nc3nc(N4CCC(O[C@H]5C[C@H](N6CC7(CCN(c8ccc9c(c8F)CN(C8CCC(=O)NC8=O)C9=O)CC7)C6)C5)CC4)ncc3Cl)ccc2n(C(C)C)c1=O` (stereo partly drawn) [Compound 393, 2-({6-[(5-chloro-2-{4-[(1r,3r)-3-{7-[2-(2,6-dioxopiperidin-3-yl)-4-fluoro-1-oxo-2,3-dihydro-1H-isoindol-5-yl]-2,7-diazaspiro[3.5]nonan-2-yl}cyclobutoxy]piperidin-1-yl}pyrimidin-4-yl)amino]-2-oxo-1-(propan-2-yl)-1,2-dihydroquinolin-3-yl}oxy)-N-methylacetamide], for which the Dmax was no less than 70% and the DC50 was less than 10 nM.

In the case of `CNC(=O)COc1cc2cc(Nc3nc(N4CCC(O[C@H]5C[C@H](N6CCN(c7ccc8c(c7F)CN([C@H]7CCC(=O)NC7=O)C8=O)[C@H](C)C6)C5)CC4)ncc3Cl)ccc2n(C(C)C)c1=O` [Compound 394, 2-({6-[(5-chloro-2-{4-[(1r,3r)-3-[(3R)-4-{2-[(3S)-2,6-dioxopiperidin-3-yl]-4-fluoro-1-oxo-2,3-dihydro-1H-isoindol-5-yl}-3-methylpiperazin-1-yl]cyclobutoxy]piperidin-1-yl}pyrimidin-4-yl)amino]-2-oxo-1-(propan-2-yl)-1,2-dihydroquinolin-3-yl}oxy)-N-methylacetamide], the Dmax is no less than 70% and the DC50 was less than 10 nM.

As for `CNC(=O)COc1cc2cc(Nc3nc(N4CCC(O[C@H]5C[C@H](N6CCN(c7ccc8c(c7F)CN([C@@H]7CCC(=O)NC7=O)C8=O)[C@H](C)C6)C5)CC4)ncc3Cl)ccc2n(C(C)C)c1=O` [Compound 395, 2-({6-[(5-chloro-2-{4-[(1r,3r)-3-[(3R)-4-{2-[(3R)-2,6-dioxopiperidin-3-yl]-4-fluoro-1-oxo-2,3-dihydro-1H-isoindol-5-yl}-3-methylpiperazin-1-yl]cyclobutoxy]piperidin-1-yl}pyrimidin-4-yl)amino]-2-oxo-1-(propan-2-yl)-1,2-dihydroquinolin-3-yl}oxy)-N-methylacetamide], the Dmax is no less than 70% and the DC50 was less than 10 nM.

For the compound `CNC(=O)COc1cc2cc(Nc3nc(N4CCC(O[C@H]5C[C@H](N6CC[C@@H](c7ccc8c(c7F)CN([C@@H]7CCC(=O)NC7=O)C8=O)C(C)(C)C6)C5)CC4)ncc3Cl)ccc2n(C(C)C)c1=O` [Compound 396, 2-({6-[(5-chloro-2-{4-[(1r,3r)-3-[(4R)-4-{2-[(3R)-2,6-dioxopiperidin-3-yl]-4-fluoro-1-oxo-2,3-dihydro-1H-isoindol-5-yl}-3,3-dimethylpiperidin-1-yl]cyclobutoxy]piperidin-1-yl}pyrimidin-4-yl)amino]-2-oxo-1-(propan-2-yl)-1,2-dihydroquinolin-3-yl}oxy)-N-methylacetamide], the Dmax was no less than 70% and the DC50 is less than 10 nM.

With `CNC(=O)COc1cc2cc(Nc3nc(N4CCC(O[C@H]5C[C@H](N6CCC(c7c(C)cc8c(c7F)CN(C7CCC(=O)NC7=O)C8=O)CC6)C5)CC4)ncc3Cl)ccc2n(C(C)C)c1=O` (stereo partly drawn) [Compound 397, 2-({6-[(5-chloro-2-{4-[(1r,3r)-3-{4-[2-(2,6-dioxopiperidin-3-yl)-4-fluoro-6-methyl-1-oxo-2,3-dihydro-1H-isoindol-5-yl]piperidin-1-yl}cyclobutoxy]piperidin-1-yl}pyrimidin-4-yl)amino]-2-oxo-1-(propan-2-yl)-1,2-dihydroquinolin-3-yl}oxy)-N-methylacetamide], the Dmax was no less than 70% and the DC50 is less than 10 nM.

For `CNC(=O)COc1cc2cc(Nc3nc(N4CCC(O[C@H]5C[C@H](N6CCC(c7ccc8c(c7)C(=O)N(C7CCC(=O)NC7=O)C8=O)C(C)(C)C6)C5)CC4)ncc3Cl)ccc2n(C(C)C)c1=O` (stereo partly drawn) [Compound 399, 2-({6-[(5-chloro-2-{4-[(1r,3r)-3-{4-[2-(2,6-dioxopiperidin-3-yl)-1,3-dioxo-2,3-dihydro-1H-isoindol-5-yl]-3,3-dimethylpiperidin-1-yl}cyclobutoxy]piperidin-1-yl}pyrimidin-4-yl)amino]-2-oxo-1-(propan-2-yl)-1,2-dihydroquinolin-3-yl}oxy)-N-methylacetamide], the Dmax was no less than 70% and the DC50 lay in the range of 10 to 50 nM.

As to `CNC(=O)COc1cc2cc(Nc3nc(N4CCC(O[C@H]5C[C@H](N6CC7(CCN(c8ccc9c(c8F)CN(C8CCC(=O)NC8=O)C9=O)C7)C6)C5)CC4)ncc3Cl)ccc2n(C(C)C)c1=O` (stereo partly drawn) [Compound 400, 2-({6-[(5-chloro-2-{4-[(1r,3r)-3-{6-[2-(2,6-dioxopiperidin-3-yl)-4-fluoro-1-oxo-2,3-dihydro-1H-isoindol-5-yl]-2,6-diazaspiro[3.4]octan-2-yl}cyclobutoxy]piperidin-1-yl}pyrimidin-4-yl)amino]-2-oxo-1-(propan-2-yl)-1,2-dihydroquinolin-3-yl}oxy)-N-methylacetamide], the Dmax was no less than 70% and the DC50 is less than 10 nM.

For the compound `CNC(=O)COc1cc2cc(Nc3nc(N4CCC(O[C@H]5C[C@H](N6CCCC7(CCN(c8ccc9c(c8F)CN(C8CCC(=O)NC8=O)C9=O)C7)C6)C5)CC4)ncc3Cl)ccc2n(C(C)C)c1=O` (stereo partly drawn) [Compound 401, 2-({6-[(5-chloro-2-{4-[(1r,3r)-3-{2-[2-(2,6-dioxopiperidin-3-yl)-4-fluoro-1-oxo-2,3-dihydro-1H-isoindol-5-yl]-2,7-diazaspiro[4.5]decan-7-yl}cyclobutoxy]piperidin-1-yl}pyrimidin-4-yl)amino]-2-oxo-1-(propan-2-yl)-1,2-dihydroquinolin-3-yl}oxy)-N-methylacetamide], the Dmax is no less than 70% and the DC50 is less than 10 nM.

For `CNC(=O)COc1cc2cc(Nc3nc(N4CCC(OC5CCC6(CC5)CN(c5ccc7c(c5C)CN(C5CCC(=O)NC5=O)C7=O)C6)CC4)ncc3Cl)ccc2n(C(C)C)c1=O` (stereo not drawn) [Compound 402, 2-{[6-({5-chloro-2-[4-({2-[2-(2,6-dioxopiperidin-3-yl)-4-methyl-1-oxo-2,3-dihydro-1H-isoindol-5-yl]-2-azaspiro[3.5]nonan-7-yl}oxy)piperidin-1-yl]pyrimidin-4-yl}amino)-2-oxo-1-(propan-2-yl)-1,2-dihydroquinolin-3-yl]oxy}-N-methylacetamide], the Dmax is no less than 70% and the DC50 was less than 10 nM.

Turning to `CNC(=O)COc1cc2cc(Nc3nc(N4CCC(CN5CCN(c6ccc7c(c6C)C(=O)N(C6CCC(=O)NC6=O)C7=O)CC5)CC4)ncc3Cl)ccc2n(C(C)C)c1=O` (stereo not drawn) [Compound 403, 2-{[6-({5-chloro-2-[4-({4-[2-(2,6-dioxopiperidin-3-yl)-4-methyl-1,3-dioxo-2,3-dihydro-1H-isoindol-5-yl]piperazin-1-yl}methyl)piperidin-1-yl]pyrimidin-4-yl}amino)-2-oxo-1-(propan-2-yl)-1,2-dihydroquinolin-3-yl]oxy}-N-methylacetamide], the Dmax lay in the range of 50 to 70% and the DC50 was less than 10 nM.

For `CNC(=O)COc1cc2cc(Nc3nc(N4CCC(CN5CCN(c6ccc7c(c6)C(=O)N(C6CCC(=O)NC6=O)C7=O)CC5)CC4)ncc3Cl)ccc2n(C(C)C)c1=O` (stereo not drawn) [Compound 404, 2-{[6-({5-chloro-2-[4-({4-[2-(2,6-dioxopiperidin-3-yl)-1,3-dioxo-2,3-dihydro-1H-isoindol-5-yl]piperazin-1-yl}methyl)piperidin-1-yl]pyrimidin-4-yl}amino)-2-oxo-1-(propan-2-yl)-1,2-dihydroquinolin-3-yl]oxy}-N-methylacetamide], the Dmax lay in the range of 50 to 70% and the DC50 lay within 10 to 50 nM.

On to `CNC(=O)COc1cc2cc(Nc3nc(N4CCC(O[C@H]5C[C@H](N6CCC7(CN(c8ccc9c(c8F)CN(C8CCC(=O)NC8=O)C9=O)C7)C6)C5)CC4)ncc3Cl)ccc2n(C(C)C)c1=O` (stereo partly drawn) [Compound 405, 2-({6-[(5-chloro-2-{4-[(1r,3r)-3-{2-[2-(2,6-dioxopiperidin-3-yl)-4-fluoro-1-oxo-2,3-dihydro-1H-isoindol-5-yl]-2,6-diazaspiro[3.4]octan-6-yl}cyclobutoxy]piperidin-1-yl}pyrimidin-4-yl)amino]-2-oxo-1-(propan-2-yl)-1,2-dihydroquinolin-3-yl}oxy)-N-methylacetamide], for which the maximal degradation (Dmax) is no less than 70% and the DC50 was less than 10 nM.

With `CNC(=O)COc1cc2cc(Nc3nc(N4CCC(O[C@H]5C[C@H](N6C7CCC6CN(c6ccc8c(c6F)CN(C6CCC(=O)NC6=O)C8=O)C7)C5)CC4)ncc3Cl)ccc2n(C(C)C)c1=O` (stereo partly drawn) [Compound 406, 2-({6-[(5-chloro-2-{4-[(1r,3r)-3-{3-[2-(2,6-dioxopiperidin-3-yl)-4-fluoro-1-oxo-2,3-dihydro-1H-isoindol-5-yl]-3,8-diazabicyclo [3.2.1]octan-8-yl}cyclobutoxy]piperidin-1-yl}pyrimidin-4-yl)amino]-2-oxo-1-(propan-2-yl)-1,2-dihydroquinolin-3-yl}oxy)-N-methylacetamide], the greatest degradation seen (Dmax) was 50 to 70% and the DC50 is less than 10 nM.

Take `CNC(=O)COc1cc2cc(Nc3nc(N4CCC(O[C@H]5C[C@H](N6CCC(c7cc(OC)c8c(c7F)CN([C@H]7CCC(=O)NC7=O)C8=O)CC6)C5)CC4)ncc3Cl)ccc2n(C(C)C)c1=O` [Compound 407, 2-({6-[(5-chloro-2-{4-[(1r,3r)-3-(4-{2-[(3S)-2,6-dioxopiperidin-3-yl]-4-fluoro-7-methoxy-1-oxo-2,3-dihydro-1H-isoindol-5-yl}piperidin-1-yl)cyclobutoxy]piperidin-1-yl}pyrimidin-4-yl)amino]-2-oxo-1-(propan-2-yl)-1,2-dihydroquinolin-3-yl}oxy)-N-methylacetamide]: the Dmax was no less than 70% and the DC50 is less than 10 nM.

For `CNC(=O)COc1cc2cc(Nc3nc(N4CCC(O[C@H]5C[C@H](N6CCN(c7cc8c(cc7F)C(=O)N(C7CCC(=O)NC7=O)C8=O)[C@H](C)C6)C5)CC4)ncc3Cl)ccc2n(C(C)C)c1=O` (stereo partly drawn) [Compound 408, 2-({6-[(5-chloro-2-{4-[(1r,3r)-3-[(3R)-4-[2-(2,6-dioxopiperidin-3-yl)-6-fluoro-1,3-dioxo-2,3-dihydro-1H-isoindol-5-yl]-3-methylpiperazin-1-yl]cyclobutoxy]piperidin-1-yl}pyrimidin-4-yl)amino]-2-oxo-1-(propan-2-yl)-1,2-dihydroquinolin-3-yl}oxy)-N-methylacetamide], the Dmax lay within 50 to 70% and the DC50 lay within 50 to 100 nM.

Source of the values: US11986532B2 (Arvinas Operations, Inc., priority 2021, dated 2024).
